Laboratory results: the NIST ThermoML archive (doi:10.1021/acs.jced.8b00011)
Several values for one entry are separate records, joined by “and”; a condition that tells them apart may be missing. Equal entries are not always repeated. ± gives the expanded uncertainty stated by the source.

Conditions: Liquid; for mass density: Vibrating tube method; for electrical conductivity: electrochemical impedance spectroscopy

CCCCC[P+](CC)(CC)CC.O=S(=O)([N-]S(=O)(=O)C(F)(F)F)C(F)(F)F gave a mass density (323.15 K, 5000 kPa) of 1286.05 ± 1.3 kg/m3, an electrical conductivity (323.15 K, 5900 kPa, Frequency=0 MHz) of 0.411 ± 0.0082 S/m and a mass density (323.15 K, 10000 kPa) of 1289.93 ± 1.3 kg/m3. It also gave a viscosity (323.15 K, 10600 kPa, Falling or rolling sphere viscometry) of 33.85 ± 0.81 mPa·s, an electrical conductivity (323.15 K, 10600 kPa, Frequency=0 MHz) of 0.393 ± 0.0079 S/m and a mass density (323.15 K, 15000 kPa) of 1293.65 ± 1.3 kg/m3. It also gave a mass density (323.15 K, 20000 kPa) of 1297.31 ± 1.4 kg/m3, a viscosity (323.15 K, 20500 kPa, Falling or rolling sphere viscometry) of 37.97 ± 0.91 mPa·s and a mass density (323.15 K, 25000 kPa) of 1300.84 ± 1.4 kg/m3. The mass density (323.15 K, 30000 kPa) was 1304.31 ± 1.4 kg/m3, the viscosity (323.15 K, 30600 kPa, Falling or rolling sphere viscometry) was 42.53 ± 1 mPa·s and the mass density (323.15 K, 35000 kPa) was 1307.72 ± 1.5 kg/m3. For the same compound, the mass density (323.15 K, 40000 kPa) was 1311.03 ± 1.5 kg/m3, the viscosity (323.15 K, 40300 kPa, Falling or rolling sphere viscometry) was 47.23 ± 1.1 mPa·s and the mass density (323.15 K, 45000 kPa) was 1314.23 ± 1.5 kg/m3. The mass density (323.15 K, 50000 kPa) was 1317.43 ± 1.6 kg/m3, the viscosity (323.15 K, 50500 kPa, Falling or rolling sphere viscometry) was 52.72 ± 1.2 mPa·s and the viscosity (323.15 K, 60300 kPa, Falling or rolling sphere viscometry) was 58.3 ± 1.4 mPa·s. For the same compound, the electrical conductivity (323.15 K, 77000 kPa, Frequency=0 MHz) was 0.211 ± 0.0042 S/m, the viscosity (323.15 K, 80500 kPa, Falling or rolling sphere viscometry) was 71.43 ± 1.8 mPa·s and the viscosity (323.15 K, 100200 kPa, Falling or rolling sphere viscometry) was 86.46 ± 2.4 mPa·s. The viscosity (323.15 K, 120600 kPa, Falling or rolling sphere viscometry) was 104.7 ± 3.4 mPa·s, the electrical conductivity (323.15 K, 126900 kPa, Frequency=0 MHz) was 0.138 ± 0.0028 S/m and the viscosity (323.15 K, 140600 kPa, Falling or rolling sphere viscometry) was 125.7 ± 4.6 mPa·s. It also gave a viscosity (323.15 K, 160500 kPa, Falling or rolling sphere viscometry) of 149.6 ± 6 mPa·s, a viscosity (323.15 K, 180500 kPa, Falling or rolling sphere viscometry) of 178.5 ± 8 mPa·s and a viscosity (323.15 K, 200300 kPa, Falling or rolling sphere viscometry) of 210.1 ± 10 mPa·s. It also gave an electrical conductivity (323.15 K, 201300 kPa, Frequency=0 MHz) of 0.0751 ± 0.0015 S/m, a viscosity (323.15 K, 210900 kPa, Falling or rolling sphere viscometry) of 232.2 ± 12 mPa·s and an electrical conductivity (323.15 K, 225200 kPa, Frequency=0 MHz) of 0.0625 ± 0.0013 S/m. The electrical conductivity (323.15 K, 250100 kPa, Frequency=0 MHz) was 0.0517 ± 0.001 S/m, the electrical conductivity (323.16 K, 14400 kPa, Frequency=0 MHz) was 0.378 ± 0.0076 S/m and the electrical conductivity (323.16 K, 20500 kPa, Frequency=0 MHz) was 0.356 ± 0.0071 S/m. For the same compound, the electrical conductivity (323.16 K, 25800 kPa, Frequency=0 MHz) was 0.338 ± 0.0068 S/m, the electrical conductivity (323.16 K, 30200 kPa, Frequency=0 MHz) was 0.324 ± 0.0065 S/m and the electrical conductivity (323.16 K, 40000 kPa, Frequency=0 MHz) was 0.295 ± 0.0059 S/m. The electrical conductivity (323.16 K, 49900 kPa, Frequency=0 MHz) was 0.269 ± 0.0054 S/m, the electrical conductivity (328.15 K, 101.33 kPa) was 0.515 S/m and 0.516 S/m and the viscosity (333.15 K, 100 kPa, Concentric cylinders viscometry) was 21.51 ± 0.49 mPa·s. The viscosity (333.15 K, 100 kPa, Falling or rolling sphere viscometry) was 21.43 ± 0.76 mPa·s [middle of 4 runs], the mass density (333.15 K, 100 kPa) was 1273.44 ± 1.8 kg/m3 [middle of 6 runs] and the electrical conductivity (333.15 K, 101.33 kPa) was 0.598 S/m and 0.6 S/m. The viscosity (333.15 K, 700 kPa, Falling or rolling sphere viscometry) was 21.55 ± 0.51 mPa·s, the mass density (333.15 K, 1000 kPa) was 1274.41 ± 1.3 kg/m3 and the mass density (333.15 K, 5000 kPa) was 1277.68 ± 1.3 kg/m3. For the same compound, the mass density (333.15 K, 10000 kPa) was 1281.66 ± 1.3 kg/m3, the viscosity (333.15 K, 10400 kPa, Falling or rolling sphere viscometry) was 23.8 ± 0.57 mPa·s and the viscosity (333.15 K, 10600 kPa, Falling or rolling sphere viscometry) was 24.11 ± 0.57 mPa·s. The mass density (333.15 K, 15000 kPa) was 1285.53 ± 1.3 kg/m3, the viscosity (333.15 K, 19700 kPa, Falling or rolling sphere viscometry) was 26.33 ± 1.7 mPa·s and the mass density (333.15 K, 20000 kPa) was 1289.3 ± 1.4 kg/m3. The viscosity (333.15 K, 20300 kPa, Falling or rolling sphere viscometry) was 26.81 ± 1.7 mPa·s, the mass density (333.15 K, 25000 kPa) was 1292.91 ± 1.4 kg/m3 and the mass density (333.15 K, 30000 kPa) was 1296.47 ± 1.4 kg/m3. For the same compound, the viscosity (333.15 K, 30600 kPa, Falling or rolling sphere viscometry) was 29.93 ± 0.71 mPa·s and 29.71 ± 0.71 mPa·s, the mass density (333.15 K, 35000 kPa) was 1299.98 ± 1.4 kg/m3 and the mass density (333.15 K, 40000 kPa) was 1303.38 ± 1.5 kg/m3. The viscosity (333.15 K, 40300 kPa, Falling or rolling sphere viscometry) was 32.65 ± 0.78 mPa·s, the viscosity (333.15 K, 40600 kPa, Falling or rolling sphere viscometry) was 33.21 ± 0.79 mPa·s and the mass density (333.15 K, 45000 kPa) was 1306.68 ± 1.5 kg/m3. It also gave a mass density (333.15 K, 50000 kPa) of 1309.96 ± 1.6 kg/m3, a viscosity (333.15 K, 50400 kPa, Falling or rolling sphere viscometry) of 36.22 ± 0.86 mPa·s and a viscosity (333.15 K, 50600 kPa, Falling or rolling sphere viscometry) of 36.73 ± 0.87 mPa·s. The viscosity (333.15 K, 60500 kPa, Falling or rolling sphere viscometry) was 40.1 ± 0.95 mPa·s, the viscosity (333.15 K, 60600 kPa, Falling or rolling sphere viscometry) was 40.52 ± 0.96 mPa·s and the viscosity (333.15 K, 80200 kPa, Falling or rolling sphere viscometry) was 48.82 ± 1.2 mPa·s. For the same compound, the viscosity (333.15 K, 99600 kPa, Falling or rolling sphere viscometry) was 58.36 ± 1.4 mPa·s, the electrical conductivity (338.15 K, 101.33 kPa) was 0.687 S/m and 0.689 S/m and the viscosity (343.15 K, 100 kPa, Concentric cylinders viscometry) was 15.99 ± 0.36 mPa·s. The viscosity (343.15 K, 100 kPa, Falling or rolling sphere viscometry) was 15.89 ± 0.38 mPa·s and 15.97 ± 0.38 mPa·s, the mass density (343.15 K, 100 kPa) was 1264.95 ± 1.8 kg/m3 [middle of 6 runs] and the electrical conductivity (343.15 K, 101.33 kPa) was 0.784 S/m and 0.786 S/m. It also gave a mass density (343.15 K, 1000 kPa) of 1265.61 ± 1.3 kg/m3, a mass density (343.15 K, 5000 kPa) of 1269.03 ± 1.3 kg/m3 and a mass density (343.15 K, 10000 kPa) of 1273.12 ± 1.3 kg/m3. For the same compound, the mass density (343.15 K, 15000 kPa) was 1277.12 ± 1.3 kg/m3, the mass density (343.15 K, 20000 kPa) was 1280.98 ± 1.4 kg/m3 and the mass density (343.15 K, 25000 kPa) was 1284.76 ± 1.4 kg/m3. It also gave a mass density (343.15 K, 30000 kPa) of 1288.39 ± 1.4 kg/m3, a mass density (343.15 K, 35000 kPa) of 1291.99 ± 1.4 kg/m3 and a mass density (343.15 K, 40000 kPa) of 1295.5 ± 1.5 kg/m3.
